The subject of assay [1] is EGFR Del19/T790M/C797S (BaF3-DTC cells). The assay is described as follows: EGFR degradation HTRF assay, BaF3-DTC cells. Type of assay: cell-based. The following applies: 16h treatment; for DTC Dmax (%): maximum percentage of degradation; for DC50: read-out: DTC DC50. In outline:
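Cells treated 16 h at 37 °C, 5% CO2 in medium with 0.2% DMSO; top final concentration 10 uM, 5-fold dilution, 8 doses. Lysates read by HTRF (665/620 nm); degradation % versus DMSO high control, DC50 from four-parameter fit, Dmax as maximal degradation.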

For assay [2], the target named is T1, EGFR L858R/T790M/C797S (BaF3-LTC cells) (Homo sapiens, UniProt P00533, C797S/L858R/T790M).
T1 construct: expressed in transfected cells; host or cells: BaF3
T1 sequence (P00533 25-1210 T790M/C797S/L858R): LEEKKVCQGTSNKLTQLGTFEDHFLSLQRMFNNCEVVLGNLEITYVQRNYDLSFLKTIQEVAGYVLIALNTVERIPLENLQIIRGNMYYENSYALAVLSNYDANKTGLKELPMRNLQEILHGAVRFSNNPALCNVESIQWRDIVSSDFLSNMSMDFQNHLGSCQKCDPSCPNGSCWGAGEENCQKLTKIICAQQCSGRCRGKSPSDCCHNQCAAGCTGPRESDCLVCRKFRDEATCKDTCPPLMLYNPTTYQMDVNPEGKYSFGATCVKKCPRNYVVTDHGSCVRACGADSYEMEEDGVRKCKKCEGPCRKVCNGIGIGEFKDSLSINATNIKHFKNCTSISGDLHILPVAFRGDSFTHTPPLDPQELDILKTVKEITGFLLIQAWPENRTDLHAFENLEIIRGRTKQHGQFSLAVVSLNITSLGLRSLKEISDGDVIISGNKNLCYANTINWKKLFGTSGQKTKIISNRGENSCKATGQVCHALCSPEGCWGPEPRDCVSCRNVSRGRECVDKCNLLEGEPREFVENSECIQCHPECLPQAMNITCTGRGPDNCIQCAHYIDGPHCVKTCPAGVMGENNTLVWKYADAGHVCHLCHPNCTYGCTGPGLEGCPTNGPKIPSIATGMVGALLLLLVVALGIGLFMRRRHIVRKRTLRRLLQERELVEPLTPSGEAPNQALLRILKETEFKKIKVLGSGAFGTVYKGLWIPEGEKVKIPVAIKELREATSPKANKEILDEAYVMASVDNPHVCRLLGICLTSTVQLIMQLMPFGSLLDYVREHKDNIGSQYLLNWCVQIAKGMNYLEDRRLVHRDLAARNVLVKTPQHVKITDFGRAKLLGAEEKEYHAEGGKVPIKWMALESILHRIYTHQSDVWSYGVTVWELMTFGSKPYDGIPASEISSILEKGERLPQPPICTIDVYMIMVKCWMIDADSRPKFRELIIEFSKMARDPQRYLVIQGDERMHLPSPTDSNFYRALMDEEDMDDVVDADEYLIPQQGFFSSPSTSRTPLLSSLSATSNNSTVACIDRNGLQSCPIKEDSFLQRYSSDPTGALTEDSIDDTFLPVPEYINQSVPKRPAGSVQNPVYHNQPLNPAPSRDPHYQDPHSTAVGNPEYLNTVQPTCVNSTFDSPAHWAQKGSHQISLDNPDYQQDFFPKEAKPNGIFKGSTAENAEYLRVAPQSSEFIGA
Kind of assay: EGFR degradation HTRF assay, BaF3-LTC cells. Type of assay: cell-based. The following applies: BaF3-LTC, 16h treatment; for Dmax: maximum percentage of degradation, read-out: LTC Dmax (%); for DC50: read-out: LTC DC50. An outline of the steps:
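EGFR remaining after a 16 h, 37 °C exposure (8 doses, 5-fold steps from 10 uM final, 0.2% DMSO) was quantified by HTRF antibodies in cell lysate. Percent inhibition relative to DMSO control was fitted by four-parameter logistic to give DC50; Dmax denotes maximal degradation.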
A general note: In TR-FRET formats the signal depends on donor and acceptor labels being close together.

Regarding `CCc1cc(Nc2ncc(Br)c(Nc3ccc4nccnc4c3P(C)(C)=O)n2)c(OC)cc1N1CCC(N2CCN(C(=O)C3CN(c4ccc5nn(C6CCC(=O)NC6=O)cc5c4)C3)CC2)CC1` (stereo not shown) [Example 315, 3-(5-(3-(4-(1-(4-((5-bromo-4-((5-(dimethylphosphoryl)quinoxalin-6-yl)amino)pyrimidin-2-yl)amino)-2-ethyl-5-methoxyphenyl)piperidin-4-yl)piperazine-1-carbonyl)azetidin-1-yl)-2H-indazol-2-yl)piperidine-2,6-dione], in assay [1], the “DTC Dmax (%)” value was 89.47% and the 50% degradation concentration (DC50) came to 4.27 nM. In addition, in assay [2], the Dmax worked out at 82% and the half-maximal degradation concentration (DC50) worked out at 12.9 nM.
For the molecule `CCc1cc(Nc2ncc(Br)c(Nc3ccc4nc(C(C)C)ccc4c3P(C)(C)=O)n2)c(OC)cc1N1CCC(N2CCN(CCc3cc(F)c(C4CCC(=O)NC4=O)c(F)c3)CC2)CC1` (stereo not shown) [Example 316, 3-(4-(2-(4-(1-(4-((5-bromo-4-((5-(dimethylphosphoryl)-2-isopropylquinolin-6-yl)amino)pyrimidin-2-yl)amino)-2-ethyl-5-methoxyphenyl)piperidin-4-yl)piperazin-1-yl)ethyl)-2,6-difluorophenyl)piperidine-2,6-dione], in assay [1], the “DTC Dmax (%)” value turned out to be 89.57% and the DC50 was 9.59 nM. For the same molecule, in assay [2], the Dmax came out at 79% and the 50% degradation concentration (DC50) came out at 48.7 nM.
As to `CCc1cc(Nc2ncc(Br)c(Nc3ccc4nc(CO)ccc4c3P(C)(C)=O)n2)c(OC)cc1N1CCC(N2CCN(CCc3cc(F)c(C4CCC(=O)NC4=O)c(F)c3)CC2)CC1` (stereo not shown) [Example 329, 3-(4-(2-(4-(1-(4-((5-bromo-4-((5-(dimethylphosphoryl)-2-(hydroxymethyl)quinolin-6-yl)amino)pyrimidin-2-yl)amino)-2-ethyl-5-methoxyphenyl)piperidin-4-yl)piperazin-1-yl)ethyl)-2,6-difluorophenyl)piperidine-2,6-dione], in assay [1], the “DTC Dmax (%)” value amounted to 96.43% and the DC50 stood at 1.72 nM. For the same molecule, in assay [2], the Dmax worked out at 92.4% and the DC50 stood at 2.9 nM.
Take `CCc1cc(Nc2ncc(Br)c(Nc3ccc4ncc(F)cc4c3P(C)(C)=O)n2)c(OC)cc1N1CCC(N2CCN(CCc3cc(F)c(C4CCC(=O)NC4=O)c(F)c3)CC2)CC1` (stereo not shown) [Example 336, 3-(4-(2-(4-(1-(4-((5-bromo-4-((5-(dimethylphosphoryl)-3-fluoroquinolin-6-yl)amino)pyrimidin-2-yl)amino)-2-ethyl-5-methoxyphenyl)piperidin-4-yl)piperazin-1-yl)ethyl)-2,6-difluorophenyl)piperidine-2,6-dione]: in assay [1], the “DTC Dmax (%)” value is on record as 94.98% and the DC50 was 0.984 nM. In addition, in assay [2], the greatest degradation seen (Dmax) came out at 88.5% and the half-maximal degradation concentration (DC50) amounted to 9.91 nM.
As to `CCc1cc(Nc2ncc(Br)c(Nc3ccc4nc(C)ccc4c3P(C)(C)=O)n2)c(OC)cc1N1CCC(N2CCN(C(=O)C3CN(c4ccc5c(c4)C(C)(C)C(=O)N5C4CCC(=O)NC4=O)C3)CC2)CC1` (stereo not shown) [Example 409, 3-(5-(3-(4-(1-(4-((5-bromo-4-((5-(dimethylphosphoryl)-2-methylquinolin-6-yl)amino)pyrimidin-2-yl)amino)-2-ethyl-5-methoxyphenyl)piperidin-4-yl)piperazine-1-carbonyl)azetidin-1-yl)-3,3-dimethyl-2-oxoindolin-1-yl)piperidine-2,6-dione], in assay [1], the “DTC Dmax (%)” value amounted to 95.3% and the half-maximal degradation concentration (DC50) came out at 1.23 nM. Further, in assay [2], the Dmax came to 96.1% and the DC50 came to 1.46 nM.
`CCc1cc(Nc2ncc(Br)c(Nc3ccc4nc(C)ccc4c3P(C)(C)=O)n2)c(OC)cc1N1CCC(N2CCN(CCc3ccc4c(c3)N(C3CCC(=O)NC3=O)C(=O)C4(C)C)CC2)CC1` (stereo not shown) [Example 413, 3-(6-(2-(4-(1-(4-((5-bromo-4-((5-(dimethylphosphoryl)-2-methylquinolin-6-yl)amino)pyrimidin-2-yl)amino)-2-ethyl-5-methoxyphenyl)piperidin-4-yl)piperazin-1-yl)ethyl)-3,3-dimethyl-2-oxoindolin-1-yl)piperidine-2,6-dione]: in assay [1], the “DTC Dmax (%)” value was 95.66% and the 50% degradation concentration (DC50) stood at 1.91 nM. For the same molecule, in assay [2], the Dmax worked out at 93.2% and the 50% degradation concentration (DC50) amounted to 6.11 nM.
Regarding `CCc1cc(Nc2ncc(Br)c(Nc3ccc4nc(C5CC5)ccc4c3P(C)(C)=O)n2)c(OC)cc1N1CCC(N2CCN(CC3CN(c4ccc5c(c4)CN(C4CCC(=O)NC4=O)C5=O)C3)CC2)CC1` (stereo not shown) [Example 426, 3-(5-(3-((4-(1-(4-((5-bromo-4-((2-cyclopropyl-5-(dimethylphosphoryl)quinolin-6-yl)amino)pyrimidin-2-yl)amino)-2-ethyl-5-methoxyphenyl)piperidin-4-yl)piperazin-1-yl)methyl)azetidin-1-yl)-1-oxoisoindolin-2-yl)piperidine-2,6-dione], in assay [1], the “DTC Dmax (%)” value is on record as 91.88% and the DC50 came to 4.34 nM. Besides, in assay [2], the Dmax is 89% and the DC50 was 6.67 nM.
The like results for `CCc1cc(Nc2ncc(Br)c(Nc3ccc4nc(C5CC5)ccc4c3P(C)(C)=O)n2)c(OC)cc1N1CCC(N2CCN(CCc3cc(F)c(C4CCC(=O)NC4=O)c(F)c3)CC2)CC1` (stereo not shown) [Example 427, 3-(4-(2-(4-(1-(4-((5-bromo-4-((2-cyclopropyl-5-(dimethylphosphoryl)quinolin-6-yl)amino)pyrimidin-2-yl)amino)-2-ethyl-5-methoxyphenyl)piperidin-4-yl)piperazin-1-yl)ethyl)-2,6-difluorophenyl)piperidine-2,6-dione] were, in that order, 93.94%, 7.1 nM, 88.3% and 8.61 nM.
The like results for `CCc1cc(Nc2ncc(Br)c(Nc3ccc4ncn(C)c(=O)c4c3P(C)(C)=O)n2)c(OC)cc1N1CCC(N2CCN(CCc3cc(F)c(C4CCC(=O)NC4=O)c(F)c3)CC2)CC1` (stereo not shown) [Example 428, 3-(4-(2-(4-(1-(4-((5-bromo-4-((5-(dimethylphosphoryl)-3-methyl-4-oxo-3,4-dihydroquinazolin-6-yl)amino)pyrimidin-2-yl)amino)-2-ethyl-5-methoxyphenyl)piperidin-4-yl)piperazin-1-yl)ethyl)-2,6-difluorophenyl)piperidine-2,6-dione] were, in that order, 95.35%, 1.13 nM, 93.5% and 3.67 nM.
Regarding `CCc1cc(Nc2ncc(Br)c(Nc3ccc4c(=O)n(C)ccc4c3P(C)(C)=O)n2)c(OC)cc1N1CCC(N2CCN(CCc3cc(F)c(C4CCC(=O)NC4=O)c(F)c3)CC2)CC1` (stereo not shown) [Example 429, 3-(4-(2-(4-(1-(4-((5-bromo-4-((5-(dimethylphosphoryl)-2-methyl-1-oxo-1,2-dihydroisoquinolin-6-yl)amino)pyrimidin-2-yl)amino)-2-ethyl-5-methoxyphenyl)piperidin-4-yl)piperazin-1-yl)ethyl)-2,6-difluorophenyl)piperidine-2,6-dione], in assay [1], the “DTC Dmax (%)” value worked out at 94.9% and the DC50 came out at 2.33 nM. In assay [2], the Dmax was found to be 91.3% and the DC50 is 5.15 nM.

As a reminder, the DC50 is the concentration at which degradation of the target reaches its halfway point. For orientation: Dmax means the greatest extent of degradation seen.

The record behind these values is patent US20230265116A1, “DEGRADATION OF (EGFR) BY CONJUGATION OF EGFR INHIBITORS WITH E3 LIGASE LIGAND AND METHODS OF USE” (BEIGENE, LTD., priority 2020, published 2023).
